{
  "source": "patent US20070219208A1",
  "about": "“Methods for Treating Cancer” (priority 2006, published 2007)",
  "type_in_all_cases": "cell-based",
  "key": {"MCF-7 cells [1]": {"tested_on": "MCF-7 cells", "assay": "Cell cycle analysis by flow cytometry", "settings": "1400 W 10 μM, mevalonate 20 μM", "procedure": "For DNA content analysis, harvested cells were centrifuged at 1,000×g for 5 min, fixed by the gradual addition of ice-cold 70% ethanol, and washed with PBS. Cells were then treated with RNase (10 μg/mL) for 30 min at 37° C., washed once with PBS, and resuspended and stained in 1 mL of 69 μmol/L propidium iodide in 38 mmol/L sodium citrate for 30 min at room temperature. The cell cycle phase distribution was determined by analytic DNA flow cytometry as described in (Vindelov L, et al. Methods Cell Biol, 33:127-37, 1990). The percentage of cells in each phase of the cell cycle was analyzed using a Modfit software (Verity Software House, Topsham, Me.).\nAs NO has previously been reported to exert tumor cell cycle alterations (Pervin S, et al. Natl Acad Sci USA 98:3583-3588, 2001), we investigated the cytostatic effect of statins in MCF-7 cells. MCF-7 cells were treated with simvastatin and fluvastatin for […] in the presence and absence of 1400 W (10 μM) and mevalonate (20 μM). Cell cycle progression was examined using FACScan flow cytometry analysis. […] As cell cycle progression from […] involves activations of the cell regulatory proteins, cyclins D and E, we investigated the effects of statins and iNOS inhibitor on the cell cycle proteins. […]"}, "MCF-7 cells [2]": {"tested_on": "MCF-7 cells", "assay": "Apoptosis by TUNEL assay", "settings": "with simvastatin or fluvastatin 5-10 μM, 48 h; 1400 W 10 μM, sepiapterin 50 μM, mevalonate 20 μM", "excerpt": "Measurement of Apoptosis by TUNEL Assay:\nThe terminal deoxynucleotidyl transferase-mediated nick-end labeling (TUNEL) assay was used for microscopic detection of apoptosis (Kotamraju S, et al. J Biol Chem, 277:17179-87, 2002). This assay is based on labeling of 3′ free hydroxyl ends of the fragmented DNA with fluorescein-dUTP catalyzed by terminal deoxynucleotidyl transferase. Procedures were followed according to a commercially available kit (ApoAlert) from Clontech. […] The apoptotic cells were detected by fluorescence microscopy equipped with rhodamine and FITC filters. The quantification of apoptosis was performed using the Metamorph image analysis package.\nUnder these conditions, NO2^−/NO3^− levels were decreased (FIG. 4B). […] Further verification that iNOS is involved in […] NO was obtained from inhibition of geranylgeranylation and farnesylation. […] In contrast, FTI-277 (farnesylation inhibitor) and sepiapterin had no effect on NO2^−/NO3^− levels (FIG. 4C). […] In the TUNEL assay, cells were treated with simvastatin or fluvastatin (5-10 μM) for 48 h in the presence or absence of 1400 W (10 μM), sepiapterin (50 μM) or mevalonate (20 μM) and stained for TUNEL-positive cells as an index of DNA fragmentation monitored by fluorescence microscopy (original magnification, ×100). Photographs were taken for the overlaid images of propidium iodide-and FITC-stained cells (TUNEL-positive cells). Yellow and red denote apoptotic and nonapoptotic cells, respectively. We observed that the TUNEL positive staining was enhanced in statin-treated MCF-7 cells. […] Pretreatment with 1400 W or mevalonate caused a decrease in the TUNEL positive cells."}, "MCF-7 cells [3]": {"tested_on": "MCF-7 cells", "assay": "Soft agar assay for colony formation (anchorage-independent growth)", "settings": "1400 W 10 μM or mevalonate 20 μM with statin 10 μM", "procedure": "Soft Agar Assay for Colony Formation:\nAfter cells were treated with various conditions, they were seeded in six-well plates. The plates were first covered with phenol red-free MEM containing 0.6% agar and 10% FBS. The middle layer contained cells (5×10^3) in phenol red-free MEM with 0.35% agar and 10% FBS. The top layer, consisting of the medium, was added to prevent drying of the agar in the plates. The plates were incubated for 21 days, after which the plates were stained in 0.5 ml of 0.005% crystal violet for 1 h and the cultures were inspected and photographed. The colony efficiency (CE) was determined by a count of the number of colonies greater than […] in diameter, which was calculated as the average of colonies counted at 50× magnification in five individual fields manually (Liu S, et al. Oncogene, 23:1256-62, 2004).\nThe long-term effects of statins and the inhibitors on the proliferation and survival of MCF-7 cells were determined using clonogenic assays (Ramanathan B, et al. Cancer Res, 65:8455-60, 2005). The extent of malignancy of cells corresponds to the attainment of anchorage-independent growth (Liu S, et al. Oncogene, 23:1256-62, 2004). MCF-7 cells were treated with simvastatin or fluvastatin in the presence or absence of either 1400 W or mevalonate or sepiapterin. In separate experiments, cells were treated with either GGTI-298 or FTI-277. At the end of the treatments, approximately 5×10^3 cells were seeded onto a soft agar to determine their clonogenic efficiency after 21 days. […] In the presence of either 1400 W or mevalonate, the colony formation was restored in statin-treated cells (FIG. 6B)."}},
  "data": [
    {"compound": "CC(O)(CCO)CC(=O)O", "note": "(stereo not drawn) [mevalonate]", "values": [
      {"measurement": "effect on statin-induced cell cycle alterations", "setting": "MCF-7 cells [1]", "result": "almost completely reversed"},
      {"measurement": "effect on statin-induced TUNEL-positive cells (proapoptotic effect)", "setting": "MCF-7 cells [2]", "result": "decrease"},
      {"measurement": "colony formation in statin-treated cells in the presence of modulator", "setting": "MCF-7 cells [3]", "result": "restored"}
    ]}
  ]
}
